Measured values published in PubChem BioAssay AID256 (DTP/NCI, 2004).
Inconclusive results and toxic doses are left out.

Tested on: CD2F1 mice, L1210 leukemia ip, survival T/C
Assay: NCI In Vivo Anticancer Drug Screen. Data for tumor model L1210 Leukemia (intraperitoneal) in CD2F1 (CDF1) mice
Conditions: higher = longer survival
Method in brief: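 Ratio T/C, where T is the treated-group value and C the vehicle-dosed control value, from mice implanted with a transplantable tumor.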

## NC(CSC(c1ccccc1)(c1ccccc1)c1ccccc1)C(=O)O (stereo unspecified)
endpoint: mean survival time, dose: 160.0 mg/kg/injection, schedule: Q01DX001 (oral), vehicle: water
  T/C: 115 % of control
endpoint: mean survival time, dose: 160.0 mg/kg/injection, schedule: Q03HX024 (ip), vehicle: clinical formulation
  T/C: 152 % of control
endpoint: mean survival time, dose: 160.0 mg/kg/injection, schedule: Q03HX024 (ip), vehicle: saline
  T/C: 234 % of control
endpoint: mean survival time, dose: 200.0 mg/kg/injection, schedule: Q01DX009 (sc), vehicle: saline
  T/C: 86 % of control
endpoint: mean survival time, dose: 240.0 mg/kg/injection, schedule: Q01DX001 (oral), vehicle: saline
  T/C: 107 % of control
endpoint: mean survival time, dose: 240.0 mg/kg/injection, schedule: Q01DX009 (oral), vehicle: saline
  T/C: 103 % of control
endpoint: mean survival time, dose: 240.0 mg/kg/injection, schedule: Q04DX003 (oral), vehicle: saline
  T/C: 111 % of control
endpoint: mean survival time, dose: 320.0 mg/kg/injection, schedule: Q03HX024 (ip), vehicle: saline
  T/C: 86 % of control
endpoint: mean survival time, dose: 400.0 mg/kg/injection, schedule: Q01DX001 (sc), vehicle: saline
  T/C: 108 % of control
endpoint: mean survival time, dose: 480.0 mg/kg/injection, schedule: Q01DX001 (oral), vehicle: saline
  T/C: 107 % of control
endpoint: mean survival time, dose: 480.0 mg/kg/injection, schedule: Q01DX005 (oral), vehicle: saline
  T/C: 97 % of control
endpoint: mean survival time, dose: 480.0 mg/kg/injection, schedule: Q01DX009 (oral), vehicle: saline
  T/C: 96 % of control
endpoint: mean survival time, dose: 640.0 mg/kg/injection, schedule: Q01DX001 (oral), vehicle: water
  T/C: 108 % of control
endpoint: mean survival time, dose: 640.0 mg/kg/injection, schedule: Q01DX001 (sc), vehicle: water
  T/C: 180 % of control
endpoint: mean survival time, dose: 800.0 mg/kg/injection, schedule: Q01DX001 (sc), vehicle: saline
  T/C: 106 % of control
endpoint: mean survival time, dose: 960.0 mg/kg/injection, schedule: Q04DX003 (oral), vehicle: saline
  T/C: 150 % of control
endpoint: median survival time, dose: 3.9 mg/kg/injection, schedule: Q01DX009 (ip), vehicle: clinical formulation
  T/C: 91 % of control
endpoint: median survival time, dose: 5.0 mg/kg/injection, schedule: Q03HX024 (ip), vehicle: water
  T/C: 111 % of control
endpoint: median survival time, dose: 7.8 mg/kg/injection, schedule: Q01DX009 (ip), vehicle: clinical formulation
  T/C: 94 % of control
endpoint: median survival time, dose: 10.0 mg/kg/injection, schedule: Q01DX009 (ip), vehicle: water
  T/C: 88 % of control
endpoint: median survival time, dose: 10.0 mg/kg/injection, schedule: Q03HX024 (ip), vehicle: water
  T/C: 122 % of control
endpoint: median survival time, dose: 10.0 mg/kg/injection, schedule: Q04DX003 (ip), vehicle: water
  T/C: 111 % of control
endpoint: median survival time, dose: 15.6 mg/kg/injection, schedule: Q01DX009 (ip), vehicle: clinical formulation
  T/C: 121 % of control
endpoint: median survival time, dose: 20.0 mg/kg/injection, schedule: Q01DX009 (oral), vehicle: water
  T/C: 111 % of control
endpoint: median survival time, dose: 20.0 mg/kg/injection, schedule: Q03HX024 (ip), vehicle: water
  T/C: 150 % of control
endpoint: median survival time, dose: 20.0 mg/kg/injection, schedule: Q04DX003 (ip), vehicle: water
  T/C: 88 % of control
endpoint: median survival time, dose: 31.3 mg/kg/injection, schedule: Q01DX009 (ip), vehicle: clinical formulation
  T/C: 118 % of control
endpoint: median survival time, dose: 31.3 mg/kg/injection, schedule: Q01DX009 (oral), vehicle: clinical formulation
  T/C: 121 % of control
endpoint: median survival time, dose: 31.3 mg/kg/injection, schedule: Q03HX008 (oral), vehicle: clinical formulation
  T/C: 121 % of control
endpoint: median survival time, dose: 31.3 mg/kg/injection, schedule: Q03HX024 (oral), vehicle: clinical formulation
  T/C: 88 % of control
endpoint: median survival time, dose: 40.0 mg/kg/injection, schedule: Q01DX009 (ip), vehicle: water
  T/C: 88 % of control
endpoint: median survival time, dose: 40.0 mg/kg/injection, schedule: Q01DX009 (oral), vehicle: water
  T/C: 111 % of control
endpoint: median survival time, dose: 40.0 mg/kg/injection, schedule: Q04DX003 (ip), vehicle: water
  T/C: 88 % of control
endpoint: median survival time, dose: 62.5 mg/kg/injection, schedule: Q03HX008 (oral), vehicle: clinical formulation
  T/C: 164 % of control
endpoint: median survival time, dose: 62.5 mg/kg/injection, schedule: Q03HX016 (oral), vehicle: clinical formulation
  T/C: 90 % of control
endpoint: median survival time, dose: 80.0 mg/kg/injection, schedule: Q04DX003 (ip), vehicle: water
  T/C: 105 % of control
endpoint: median survival time, dose: 125.0 mg/kg/injection, schedule: Q01DX009 (oral), vehicle: clinical formulation
  T/C: 114 % of control
endpoint: median survival time, dose: 125.0 mg/kg/injection, schedule: Q03HX016 (oral), vehicle: clinical formulation
  T/C: 90 % of control
endpoint: median survival time, dose: 125.0 mg/kg/injection, schedule: Q04DX003 (oral), vehicle: clinical formulation
  T/C: 151 % of control
endpoint: median survival time, dose: 160.0 mg/kg/injection, schedule: Q01DX009 (oral), vehicle: water
  T/C: 116 % of control
endpoint: median survival time, dose: 250.0 mg/kg/injection, schedule: Q01DX001 (oral), vehicle: clinical formulation
  T/C: 119 % of control
endpoint: median survival time, dose: 250.0 mg/kg/injection, schedule: Q04DX003 (oral), vehicle: clinical formulation
  T/C: 184 % of control
endpoint: median survival time, dose: 250.0 mg/kg/injection, schedule: Q08DX002 (oral), vehicle: clinical formulation
  T/C: 151 % of control
endpoint: median survival time, dose: 500.0 mg/kg/injection, schedule: Q01DX001 (oral), vehicle: clinical formulation
  T/C: 98 % of control
endpoint: median survival time, dose: 500.0 mg/kg/injection, schedule: Q04DX003 (oral), vehicle: clinical formulation
  T/C: 98 % of control
endpoint: median survival time, dose: 500.0 mg/kg/injection, schedule: Q08DX002 (oral), vehicle: clinical formulation
  T/C: 191 % of control
